Reference: ChEMBL document CHEMBL1139874, “New diphenylacetylenes as probes for positron emission tomographic imaging of amyloid plaques” (J Med Chem, 2007)

Tests used:
[1] = biological target: Amyloid-beta precursor protein (Homo sapiens, UniProt P05067); assay: Displacement of [125I]IMPY from human beta amyloid plaque in brain homogenates; assay type: tissue-based
Liver [2] = assay: Biodistribution in ICR mouse liver at 5 to 10 uCi, iv after 2 hrs; assay type: ADME, organism-based; settings: in vivo
Zone of skin [3] = assay: Biodistribution in ICR mouse skin at 5 to 10 uCi, iv after 2 hrs; assay type: ADME, organism-based; settings: in vivo
Brain [4] = assay: Biodistribution in ICR mouse brain at 5 to 10 uCi, iv after 2 hrs; assay type: ADME, organism-based; settings: in vivo
Bone [5] = assay: Biodistribution in ICR mouse bone at 5 to 10 uCi, iv after 2 hrs; assay type: ADME, organism-based, Bone element; settings: in vivo
[6] = Partition coefficient, log P at pH 7.4; assay type: physicochemical; settings: octanol/water
Blood [7] = assay: Biodistribution in ICR mouse blood at 5 to 10 uCi, iv after 2 mins; assay type: ADME, organism-based; settings: in vivo
Heart [8] = assay: Biodistribution in ICR mouse heart at 5 to 10 uCi, iv after 2 mins; assay type: ADME, organism-based; settings: in vivo
Muscle tissue [9] = assay: Biodistribution in ICR mouse muscle at 5 to 10 uCi, iv after 2 mins; assay type: ADME, organism-based; settings: in vivo
Lung [10] = assay: Biodistribution in ICR mouse lung at 5 to 10 uCi, iv after 2 mins; assay type: ADME, organism-based; settings: in vivo
Kidney [11] = assay: Biodistribution in ICR mouse kidney at 5 to 10 uCi, iv after 2 mins; assay type: ADME, organism-based; settings: in vivo
Spleen [12] = assay: Biodistribution in ICR mouse spleen at 5 to 10 uCi, iv after 2 mins; assay type: ADME, organism-based; settings: in vivo
Liver [13] = assay: Biodistribution in ICR mouse liver at 5 to 10 uCi, iv after 2 mins; assay type: ADME, organism-based; settings: in vivo
Zone of skin [14] = assay: Biodistribution in ICR mouse skin at 5 to 10 uCi, iv after 2 mins; assay type: ADME, organism-based; settings: in vivo
Brain [15] = assay: Biodistribution in ICR mouse brain at 5 to 10 uCi, iv after 2 mins; assay type: ADME, organism-based; settings: in vivo
Bone [16] = assay: Biodistribution in ICR mouse bone at 5 to 10 uCi, iv after 2 mins; assay type: ADME, organism-based, Bone element; settings: in vivo
Blood [17] = assay: Biodistribution in ICR mouse blood at 5 to 10 uCi, iv after 30 mins; assay type: ADME, organism-based; settings: in vivo, 0.5 h
Heart [18] = assay: Biodistribution in ICR mouse heart at 5 to 10 uCi, iv after 30 mins; assay type: ADME, organism-based; settings: in vivo, 0.5 h
Muscle tissue [19] = assay: Biodistribution in ICR mouse muscle at 5 to 10 uCi, iv after 30 mins; assay type: ADME, organism-based; settings: in vivo, 0.5 h
Lung [20] = assay: Biodistribution in ICR mouse lung at 5 to 10 uCi, iv after 30 mins; assay type: ADME, organism-based; settings: in vivo, 0.5 h
Kidney [21] = assay: Biodistribution in ICR mouse kidney at 5 to 10 uCi, iv after 30 mins; assay type: ADME, organism-based; settings: in vivo, 0.5 h
Spleen [22] = assay: Biodistribution in ICR mouse spleen at 5 to 10 uCi, iv after 30 mins; assay type: ADME, organism-based; settings: in vivo, 0.5 h
Liver [23] = assay: Biodistribution in ICR mouse liver at 5 to 10 uCi, iv after 30 mins; assay type: ADME, organism-based; settings: in vivo, 0.5 h
Zone of skin [24] = assay: Biodistribution in ICR mouse skin at 5 to 10 uCi, iv after 30 mins; assay type: ADME, organism-based; settings: in vivo, 0.5 h
Brain [25] = assay: Biodistribution in ICR mouse brain at 5 to 10 uCi, iv after 30 mins; assay type: ADME, organism-based; settings: in vivo, 0.5 h
Bone [26] = assay: Biodistribution in ICR mouse bone at 5 to 10 uCi, iv after 30 mins; assay type: ADME, organism-based, Bone element; settings: in vivo, 0.5 h
Blood [27] = assay: Biodistribution in ICR mouse blood at 5 to 10 uCi, iv after 1 hr; assay type: ADME, organism-based; settings: in vivo
Heart [28] = assay: Biodistribution in ICR mouse heart at 5 to 10 uCi, iv after 1 hr; assay type: ADME, organism-based; settings: in vivo
Muscle tissue [29] = assay: Biodistribution in ICR mouse muscle at 5 to 10 uCi, iv after 1 hr; assay type: ADME, organism-based; settings: in vivo
Lung [30] = assay: Biodistribution in ICR mouse lung at 5 to 10 uCi, iv after 1 hr; assay type: ADME, organism-based; settings: in vivo
Kidney [31] = assay: Biodistribution in ICR mouse kidney at 5 to 10 uCi, iv after 1 hr; assay type: ADME, organism-based; settings: in vivo
Spleen [32] = assay: Biodistribution in ICR mouse spleen at 5 to 10 uCi, iv after 1 hr; assay type: ADME, organism-based; settings: in vivo
Liver [33] = assay: Biodistribution in ICR mouse liver at 5 to 10 uCi, iv after 1 hr; assay type: ADME, organism-based; settings: in vivo
Zone of skin [34] = assay: Biodistribution in ICR mouse skin at 5 to 10 uCi, iv after 1 hr; assay type: ADME, organism-based; settings: in vivo
Brain [35] = assay: Biodistribution in ICR mouse brain at 5 to 10 uCi, iv after 1 hr; assay type: ADME, organism-based; settings: in vivo
Bone [36] = assay: Biodistribution in ICR mouse bone at 5 to 10 uCi, iv after 1 hr; assay type: ADME, organism-based, Bone element; settings: in vivo
Blood [37] = assay: Biodistribution in ICR mouse blood at 5 to 10 uCi, iv after 2 hrs; assay type: ADME, organism-based; settings: in vivo
Heart [38] = assay: Biodistribution in ICR mouse heart at 5 to 10 uCi, iv after 2 hrs; assay type: ADME, organism-based; settings: in vivo
Muscle tissue [39] = assay: Biodistribution in ICR mouse muscle at 5 to 10 uCi, iv after 2 hrs; assay type: ADME, organism-based; settings: in vivo
Lung [40] = assay: Biodistribution in ICR mouse lung at 5 to 10 uCi, iv after 2 hrs; assay type: ADME, organism-based; settings: in vivo
Kidney [41] = assay: Biodistribution in ICR mouse kidney at 5 to 10 uCi, iv after 2 hrs; assay type: ADME, organism-based; settings: in vivo
Spleen [42] = assay: Biodistribution in ICR mouse spleen at 5 to 10 uCi, iv after 2 hrs; assay type: ADME, organism-based; settings: in vivo

Chain of Amyloid-beta precursor protein (P05067 whole entry): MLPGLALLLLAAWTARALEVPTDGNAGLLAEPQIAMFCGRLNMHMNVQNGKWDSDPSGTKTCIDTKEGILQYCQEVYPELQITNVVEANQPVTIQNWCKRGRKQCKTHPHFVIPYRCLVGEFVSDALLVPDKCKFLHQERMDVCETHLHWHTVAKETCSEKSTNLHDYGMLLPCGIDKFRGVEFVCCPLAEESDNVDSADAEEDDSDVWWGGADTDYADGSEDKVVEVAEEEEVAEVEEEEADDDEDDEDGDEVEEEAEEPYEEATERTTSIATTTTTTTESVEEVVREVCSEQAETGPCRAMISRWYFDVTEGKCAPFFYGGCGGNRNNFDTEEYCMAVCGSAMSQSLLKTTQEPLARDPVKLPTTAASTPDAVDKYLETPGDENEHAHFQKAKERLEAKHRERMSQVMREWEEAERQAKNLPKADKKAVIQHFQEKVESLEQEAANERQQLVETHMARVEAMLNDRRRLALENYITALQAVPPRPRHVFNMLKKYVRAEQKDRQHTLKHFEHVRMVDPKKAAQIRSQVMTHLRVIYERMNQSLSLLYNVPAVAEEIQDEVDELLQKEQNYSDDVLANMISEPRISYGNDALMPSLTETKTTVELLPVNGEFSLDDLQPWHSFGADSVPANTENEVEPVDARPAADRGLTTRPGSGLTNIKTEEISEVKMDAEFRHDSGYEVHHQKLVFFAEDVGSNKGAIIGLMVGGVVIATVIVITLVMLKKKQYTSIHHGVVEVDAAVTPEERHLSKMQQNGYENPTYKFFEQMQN

SMILES: Oc1ccc(C#Cc2ccc(OCCOCCOCCF)cc2)cc1
- Ki [1]: 16.5 nM

SMILES: Nc1ccc(C#Cc2ccc(OCCOCCOCCO)cc2)cc1
- Ki [1]: 67.6 nM

SMILES: CNc1ccc(C#Cc2ccc(OCCOCC[18F])cc2)cc1
- Drug uptake (Liver [2]): 11.7 % ID/g
- Drug uptake (Zone of skin [3]): 2.04 % ID/g
- Drug uptake (Brain [4]): 0.82 % ID/g
- Drug uptake (Bone [5]): 2.07 % ID/g
- logD [6]: 3.48
- Drug uptake (Blood [7]): 7.89 % ID/g
- Drug uptake (Heart [8]): 4.73 % ID/g
- Drug uptake (Muscle tissue [9]): 0.79 % ID/g
- Drug uptake (Lung [10]): 6.57 % ID/g
- Drug uptake (Kidney [11]): 5.55 % ID/g
- Drug uptake (Spleen [12]): 3.74 % ID/g
- Drug uptake (Liver [13]): 29.6 % ID/g
- Drug uptake (Zone of skin [14]): 0.94 % ID/g
- Drug uptake (Brain [15]): 4.42 % ID/g
- Drug uptake (Bone [16]): 1.54 % ID/g
- Drug uptake (Blood [17]): 7.9 % ID/g
- Drug uptake (Heart [18]): 2.84 % ID/g
- Drug uptake (Muscle tissue [19]): 1.26 % ID/g
- Drug uptake (Lung [20]): 4.77 % ID/g
- Drug uptake (Kidney [21]): 4.78 % ID/g
- Drug uptake (Spleen [22]): 3.6 % ID/g
- Drug uptake (Liver [23]): 18.3 % ID/g
- Drug uptake (Zone of skin [24]): 2.11 % ID/g
- Drug uptake (Brain [25]): 1.03 % ID/g
- Drug uptake (Bone [26]): 1.46 % ID/g
- Drug uptake (Blood [27]): 10.3 % ID/g
- Drug uptake (Heart [28]): 3.54 % ID/g
- Drug uptake (Muscle tissue [29]): 1.38 % ID/g
- Drug uptake (Lung [30]): 6.01 % ID/g
- Drug uptake (Kidney [31]): 6.17 % ID/g
- Drug uptake (Spleen [32]): 3.78 % ID/g
- Drug uptake (Liver [33]): 15.6 % ID/g
- Drug uptake (Zone of skin [34]): 2.55 % ID/g
- Drug uptake (Brain [35]): 0.99 % ID/g
- Drug uptake (Bone [36]): 1.92 % ID/g
- Drug uptake (Blood [37]): 7.84 % ID/g
- Drug uptake (Heart [38]): 2.6 % ID/g
- Drug uptake (Muscle tissue [39]): 1.26 % ID/g
- Drug uptake (Lung [40]): 4.67 % ID/g
- Drug uptake (Kidney [41]): 5.55 % ID/g
- Drug uptake (Spleen [42]): 3.3 % ID/g

SMILES: CNc1ccc(C#Cc2ccc(O)cc2)cc1
- Ki [1]: 1.5 nM

SMILES: COc1ccc(C#Cc2ccc(O)cc2)cc1
- Ki [1]: 2.9 nM

SMILES: Nc1ccc(C#Cc2ccc(O)cc2)cc1
- Ki [1]: 106 nM

SMILES: Nc1ccc(C#Cc2ccc(OCCOCCF)cc2)cc1
- Ki [1]: 12 nM

SMILES: CN(C)c1ccc(C#Cc2ccc(OCCOCCO)cc2)cc1
- Ki [1]: 3.8 nM

SMILES: CN(C)c1ccc(C#Cc2ccc(OCCOCCOCCO)cc2)cc1
- Ki [1]: 3.4 nM

SMILES: CNc1ccc(C#Cc2ccc(OCCOCCOCC[18F])cc2)cc1
- Drug uptake (Liver [2]): 9.14 % ID/g
- Drug uptake (Zone of skin [3]): 0.6 % ID/g
- Drug uptake (Brain [4]): 0.38 % ID/g
- Drug uptake (Bone [5]): 0.82 % ID/g
- logD [6]: 3.07
- Drug uptake (Blood [7]): 3.28 % ID/g
- Drug uptake (Heart [8]): 4.21 % ID/g
- Drug uptake (Muscle tissue [9]): 1.97 % ID/g
- Drug uptake (Lung [10]): 4.64 % ID/g
- Drug uptake (Kidney [11]): 4.74 % ID/g
- Drug uptake (Spleen [12]): 2.69 % ID/g
- Drug uptake (Liver [13]): 25.8 % ID/g
- Drug uptake (Zone of skin [14]): 1.24 % ID/g
- Drug uptake (Brain [15]): 4.55 % ID/g
- Drug uptake (Bone [16]): 1.5 % ID/g
- Drug uptake (Blood [17]): 3.28 % ID/g
- Drug uptake (Heart [18]): 1.4 % ID/g
- Drug uptake (Muscle tissue [19]): 0.61 % ID/g
- Drug uptake (Lung [20]): 2.1 % ID/g
- Drug uptake (Kidney [21]): 2.9 % ID/g
- Drug uptake (Spleen [22]): 1.22 % ID/g
- Drug uptake (Liver [23]): 14.8 % ID/g
- Drug uptake (Zone of skin [24]): 1.4 % ID/g
- Drug uptake (Brain [25]): 0.42 % ID/g
- Drug uptake (Bone [26]): 0.66 % ID/g
- Drug uptake (Blood [27]): 3.22 % ID/g
- Drug uptake (Heart [28]): 1.24 % ID/g
- Drug uptake (Muscle tissue [29]): 0.62 % ID/g
- Drug uptake (Lung [30]): 2.04 % ID/g
- Drug uptake (Kidney [31]): 2.4 % ID/g
- Drug uptake (Spleen [32]): 0.95 % ID/g
- Drug uptake (Liver [33]): 10.2 % ID/g
- Drug uptake (Zone of skin [34]): 0.95 % ID/g
- Drug uptake (Brain [35]): 0.37 % ID/g
- Drug uptake (Bone [36]): 0.65 % ID/g
- Drug uptake (Blood [37]): 3.17 % ID/g
- Drug uptake (Heart [38]): 0.96 % ID/g
- Drug uptake (Muscle tissue [39]): 0.39 % ID/g
- Drug uptake (Lung [40]): 1.72 % ID/g
- Drug uptake (Kidney [41]): 1.8 % ID/g
- Drug uptake (Spleen [42]): 1.02 % ID/g

SMILES: C(#Cc1ccccc1)c1ccccc1 [DIPHENYLACETYLENE]
- Ki [1]: 175 nM
